In one assay the target is T1, motilin receptor (Oryctolagus cuniculus, UniProt G1T803).
T1 construct: homogenized in 50 mM Tris buffer to prepare a protein sample; from tissue; host or cells: rabbit duodenum homogenate (mucous membrane separated)
The assay is described as follows: Motilin receptor binding test (125I motilin, rabbit duodenum protein sample). The following applies: 125I motilin 25 pM, concentration reducing specific binding by 50%. The procedure:
Motilin receptor binding test
A motilin receptor binding test was conducted in the following manner [Vantrappen et al., Regul. Peptides, 15, 143 (1986)]. The duodenum was extracted from a slaughtered rabbit, had the mucous membrane separated and homogenized in 50 mM Tris buffer to prepare a protein sample. The protein sample was incubated together with ^125I motilin 25 pM and thereafter the radioactivity bound to the protein was measured. Specific binding was defined as the difference between the radioactivity in the case of adding a great excess amount of motilin (10^−7 M) and that in the case of no adding. The activity of the compound was expressed by IC50 (in nM), as the concentration sufficient to reduce the specific binding by 50%.

Assay [1] relates to specimen of longitudinal muscle in the duodenum extracted from a rabbit (motilin-induced contraction). The assay is described as follows: Action on the motilin-induced contraction of a specimen of longitudinal muscle in the duodenum extracted from a rabbit. The conditions noted are these: Oryctolagus cuniculus, organ bath, Krebs solution 28° C., read-out: Contraction suppressing test, pA2 (converted). The method, then:
Action on the Contraction of a Specimen of Longitudinal Muscle in the Duodenum Extracted from a Rabbit
The action on the motilin-induced contraction of a specimen of longitudinal muscle in the duodenum extracted from a rabbit was investigated by the following method. A duodenum specimen (5×15 mm) extracted from a slaughtered rabbit was suspended in an organ bath (10 ml) such that the longitudinal muscle would run vertically; the bath was filled with a Krebs solution kept at 28° C. A mixed gas (95% O2 and 5% CO2) was continuously bubbled into the Krebs solution and the contraction of the duodenum specimen was recorded isotonically (with a 1-g load) via an isotonic transducer (ME-3407, ME Commercial, Tokyo, Japan). The degree of contraction was expressed in relative values, with the contraction by acetylcholine at a dose of 10^−4 M being taken as 100%. The activity of the compound was calculated as pA2 value indicating its effect on the dose-dependent muscle contraction by the motilin put into the organ bath.

The structures appear in SMILES notation. Where a SMILES comes first, the peptide text is derived from it. [ ]: non-standard residue; d: D form. The star is where a group is joined. NMeTyr(3-tBu) = CN[C@@H](Cc1ccc(O)c(C(C)(C)C)c1)C(=O)O; Tyr(3-tBu) = CC(C)(C)c1cc(C[C@H](N)C(=O)O)ccc1O; NMePhe(4-F) = CN[C@@H](Cc1ccc(F)cc1)C(=O)O; Tyr(3-F) = N[C@@H](Cc1ccc(O)c(F)c1)C(=O)O; Phe(4-F) = N[C@@H](Cc1ccc(F)cc1)C(=O)O; NMetBuAla = CN[C@@H](CC(C)(C)C)C(=O)O; NMe2Thi = CN[C@@H](Cc1cccs1)C(=O)O; NMeNva = CCC[C@H](NC)C(=O)O; NMeV = CN[C@H](C(=O)O)C(C)C; NHtBu = CC(C)(C)N*; NHPr = CCCN*

T1 sequence (G1T803 1-400): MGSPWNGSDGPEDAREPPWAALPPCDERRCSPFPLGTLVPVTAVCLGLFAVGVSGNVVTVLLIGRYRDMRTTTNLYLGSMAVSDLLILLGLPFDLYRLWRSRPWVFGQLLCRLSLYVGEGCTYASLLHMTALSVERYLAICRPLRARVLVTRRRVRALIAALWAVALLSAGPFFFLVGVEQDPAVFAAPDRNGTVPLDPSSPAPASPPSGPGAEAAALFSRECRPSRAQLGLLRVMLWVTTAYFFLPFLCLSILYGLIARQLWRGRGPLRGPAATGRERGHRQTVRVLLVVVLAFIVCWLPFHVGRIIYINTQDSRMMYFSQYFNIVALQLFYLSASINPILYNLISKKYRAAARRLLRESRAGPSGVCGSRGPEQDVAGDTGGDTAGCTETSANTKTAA

One may read the IC50 as the concentration that gives 50% inhibition. As for `CC(C)[C@@H](C(=O)N[C@@H](Cc1ccc(O)c(C(C)(C)C)c1)C(=O)NC(C)(C)C)N(C)C(=O)[C@@H](N)Cc1ccc(F)cc1` [Example 63, Phe(4-F)-N-Me-Val-Tyr(3-tBu)-NHtBu] (H-[Phe(4-F)]-[NMeV]-[Tyr(3-tBu)]-NHtBu), the IC50 at motilin receptor was found to be 0.62 nM. For the same compound, the Kb in assay [1] was 3.98 nM.
Regarding `CCNC(=O)[C@H](Cc1ccc(O)c(C(C)(C)C)c1)NC(=O)[C@H](C(C)C)N(C)C(=O)[C@H](Cc1ccc(F)cc1)NC` [Example 102, N-Me-Phe(4-F)-N-Me-Val-Tyr(3-tBu)-NHEt] (H-[NMePhe(4-F)]-[NMeV]-[Tyr(3-tBu)]-NHEt), on motilin receptor, the IC50 came out at 0.31 nM. For the same compound, the Kb in assay [1] is 1 nM.
The corresponding values for `CNC(=O)[C@H](Cc1ccc(O)c(C(C)(C)C)c1)N(C)C(=O)[C@H](C(C)C)N(C)C(=O)[C@H](Cc1ccc(F)cc1)NC` [Example 37, N-Me-Phe(4-F)-N-Me-Val-N-Me-Tyr(3-tBu)-NHMe] (H-[NMePhe(4-F)]-[NMeV]-[NMeTyr(3-tBu)]-NHMe) are 0.6 nM and 1.58 nM.
The corresponding values for `CN(C(=O)[C@@H](N)Cc1ccc(F)cc1)[C@@H](Cc1cccs1)C(=O)N(C)[C@@H](Cc1ccc(O)c(C(C)(C)C)c1)C(N)=O` [Example 163, Phe(4-F)-N-Me-Ala(β-2-thienyl)-N-Me-Tyr(3-tBu)-NH2] (H-[Phe(4-F)]-[NMe2Thi]-[NMeTyr(3-tBu)]-NH2) are 2.4 nM and 15.8 nM.
As for `CC(C)[C@@H](C(=O)N[C@@H](Cc1ccc(O)c(C(C)(C)C)c1)c1ncno1)N(C)C(=O)[C@@H](N)Cc1ccc(F)cc1` [Example 22, 2-((2-amino-3-(4-fluorophenyl)propionyl)-N-methylamino)-3-methylbutyric acid 2-(3-t-butyl-4-hydroxyphenyl)-1-(1,2,4-oxadiazol-5-yl)ethylamide], the IC50 on motilin receptor amounted to 0.52 nM. Also, the Kb in assay [1] was 5.01 nM.
The matching figures for `CCNC(=O)[C@H](Cc1ccc(O)c(C(C)(C)C)c1)N(C)C(=O)[C@H](C(C)C)N(C)C(=O)[C@H](Cc1ccc(F)cc1)NCC` [Example 106, N-Et-Phe(4-F)-N-Me-Val-N-Me-Tyr(3-tBu)-NHEt]: 0.62 nM and 0.158 nM.
At motilin receptor, `CCC[C@@H](C(=O)N(C)[C@@H](Cc1ccc(O)c(C(C)(C)C)c1)C(N)=O)N(C)C(=O)[C@@H](N)Cc1ccc(F)cc1` [Example 140, Phe(4-F)-N-Me-Nva-N-Me-Tyr(3-tBu)-NH2] (H-[Phe(4-F)]-[NMeNva]-[NMeTyr(3-tBu)]-NH2) showed an IC50 of 4 nM. Besides, in assay [1], the Kb is 6.31 nM.
Turning to `CC(C)[C@@H](C(=O)N(C)[C@@H](Cc1ccc(O)c(C(C)(C)C)c1)C(=O)NC1CC1)N(C)C(=O)[C@@H](N)Cc1ccc(F)cc1` [Example 121, Phe(4-F)-N-Me-Val-N-Me-Tyr(3-tBu)-NH-c-Pr], the IC50 on motilin receptor is 0.41 nM. Further, in assay [1], the Kb is 1.26 nM.
The matching figures for `CCN[C@@H](Cc1ccc(F)cc1)C(=O)N(C)[C@H](C(=O)N(C)[C@@H](Cc1ccc(O)c(C(C)(C)C)c1)C(=O)NC)C(C)C` [Example 38, N-Et-Phe(4-F)-N-Me-Val-N-Me-Tyr(3-tBu)-NHMe]: 3 nM and 6.31 nM.
The corresponding values for `CC(C)[C@@H](C(=O)N[C@@H](Cc1ccc(O)c(C(C)(C)C)c1)c1nnc[nH]1)N(C)C(=O)[C@@H](N)Cc1ccc(F)cc1` [Example 24, 2-((2-amino-3-(4-fluorophenyl)propionyl)-N-methylamino)-3-methylbutyric acid 2-(3-t-butyl-4-hydroxyphenyl)-1-(1,3,4-triazol-2-yl)ethylamide] are 0.94 nM and 0.794 nM.
At motilin receptor, `CC(C)[C@@H](C(=O)N[C@@H](Cc1ccc(O)c(C(C)(C)C)c1)c1nnco1)N(C)C(=O)[C@@H](N)Cc1ccc(F)cc1` [Example 21, 2-((2-amino-3-(4-fluorophenyl)propionyl)-N-methylamino)-3-methylbutyric acid 2-(3-t-butyl-4-hydroxyphenyl)-1-(1,3,4-oxadiazol-2-yl)ethylamide] had an IC50 of 0.27 nM. Besides, the Kb in assay [1] was 0.158 nM.
The matching figures for `CCCNC(=O)[C@H](Cc1ccc(O)c(C(C)(C)C)c1)NC(=O)[C@H](C(C)C)N(C)C(=O)[C@@H](N)Cc1ccc(F)cc1` [Example 119, Phe(4-F)-N-Me-Val-Tyr(3-tBu)-NH-n-Pr] (H-[Phe(4-F)]-[NMeV]-[Tyr(3-tBu)]-NHPr): 0.4 nM and 0.398 nM.
In turn, `CCN[C@@H](Cc1ccc(F)cc1)C(=O)N(C)[C@H](C(=O)N[C@@H](Cc1ccc(O)c(C(C)(C)C)c1)C(=O)NCO)C(C)C` [Example 124, N-Et-Phe(4-F)-N-Me-Val-Tyr(3-tBu)-NHCH2OH] came in with an IC50 on motilin receptor of 0.98 nM. Besides, the Kb in assay [1] is 0.794 nM.
`CC(C)[C@@H](C(=O)N(C)[C@@H](Cc1ccc(O)c(C(C)(C)C)c1)C(N)=O)N(C)C(=O)[C@@H](N)Cc1ccc(O)cc1F` [Example 26, Tyr(2-F)-N-Me-Val-N-Me-Tyr(3-tBu)-NH2]: the IC50 on motilin receptor came out at 7.3 nM. In addition, in assay [1], the Kb is 10 nM.
`CC(C)[C@@H](C(=O)N[C@@H](Cc1ccc(O)c(C(C)(C)C)c1)C(=O)NCO)N(C)C(=O)[C@@H](N)Cc1ccc(F)cc1` [Example 122, Phe(4-F)-N-Me-Val-Tyr(3-tBu)-NHCH2OH]: the IC50 at motilin receptor amounted to 0.47 nM. Also, in assay [1], the Kb was 1 nM.
Turning to `CC(C)[C@@H](C(=O)N[C@@H](Cc1ccc(O)c(C(C)(C)C)c1)CS(C)(=O)=O)N(C)C(=O)[C@@H](N)Cc1ccc(F)cc1` [Example 16, 2-((2-amino-3-(4-fluorophenyl)propionyl)-N-methylamino)-3-methylbutyric acid 2-(3-t-butyl-4-hydroxyphenyl)-1-methanesulfonylmethylethylamide], the IC50 at motilin receptor stood at 0.41 nM. In addition, in assay [1], the Kb was 0.398 nM.
For the compound `CCNC(=O)[C@H](Cc1ccc(O)c(C(C)(C)C)c1)N(C)C(=O)[C@H](C(C)C)N(C)C(=O)[C@@H](N)Cc1ccc(F)cc1` [Example 104, Phe(4-F)-N-Me-Val-N-Me-Tyr(3-tBu)-NHEt] (H-[Phe(4-F)]-[NMeV]-[NMeTyr(3-tBu)]-NHEt), on motilin receptor, the IC50 stood at 0.32 nM. Besides, in assay [1], the Kb is 0.794 nM.
On to `CC(C)[C@@H](C(=O)N(C)[C@@H](Cc1ccc(O)c(C(C)(C)C)c1)C(=O)NCO)N(C)C(=O)[C@@H](N)Cc1ccc(F)cc1` [Example 132, Phe(4-F)-N-Me-Val-N-Me-Tyr(3-tBu)-NHCH2OH], for which the IC50 at motilin receptor stood at 0.86 nM. Moreover, the Kb in assay [1] is 1.26 nM.
Take `CC(C)[C@@H](C(=O)N(C)[C@@H](Cc1ccc(O)c(C(C)(C)C)c1)C(N)=O)N(C)C(=O)[C@@H](N)Cc1ccc(F)cc1` [Example 1, Phe(4-F)-N-Me-Val-N-Me-Tyr(3-tBu)-NH2] (H-[Phe(4-F)]-[NMeV]-[NMeTyr(3-tBu)]-NH2): the IC50 at motilin receptor is 0.89 nM. Besides, the Kb in assay [1] was 1.58 nM.
On motilin receptor, `CC(C)[C@@H](C(=O)N(C)[C@@H](Cc1ccc(O)c(C(C)(C)C)c1)C(N)=O)N(C)C(=O)[C@@H](N)Cc1ccc(O)c(F)c1` [Example 27, Tyr(3-F)-N-Me-Val-N-Me-Tyr(3-tBu)-NH2] (H-[Tyr(3-F)]-[NMeV]-[NMeTyr(3-tBu)]-NH2) had an IC50 of 1.2 nM. Also, the Kb in assay [1] was 2.51 nM.
The compound `CC(C)[C@@H](C(=O)N[C@@H](Cc1ccc(O)c(C(C)(C)C)c1)C(=O)Nc1ccccn1)N(C)C(=O)[C@@H](N)Cc1ccc(F)cc1` [Example 8, 2-((2-amino-3-(4-fluorophenyl)propionyl)-N-methylamino)-3-methylbutyric acid 2-(3-tert-butyl-4-hydroxyphenyl)-1-(2-pyridylcarbamoyl)ethylamide] yielded an IC50 at motilin receptor of 0.35 nM. Further, the Kb in assay [1] is 0.316 nM.
`CCNC(=O)[C@H](Cc1ccc(O)c(C(C)(C)C)c1)NC(=O)[C@H](C(C)C)N(C)C(=O)[C@@H](N)Cc1ccc(F)cc1` [Example 101, Phe(4-F)-N-Me-Val-Tyr(3-tBu)-NHEt] (H-[Phe(4-F)]-[NMeV]-[Tyr(3-tBu)]-NHEt) had an IC50 at motilin receptor of 0.24 nM. The Kb in assay [1] is 1.26 nM.
With `CN(C(=O)[C@@H](N)Cc1ccc(F)cc1)[C@@H](CC(C)(C)C)C(=O)N(C)[C@@H](Cc1ccc(O)c(C(C)(C)C)c1)C(N)=O` [Example 148, Phe(4-F)-N-Me-Leu(γ-Me)-N-Me-Tyr(3-tBu)-NH2] (H-[Phe(4-F)]-[NMetBuAla]-[NMeTyr(3-tBu)]-NH2), at motilin receptor, the IC50 amounted to 4.1 nM. Further, the Kb in assay [1] was 3.98 nM.
The matching figures for `CN[C@@H](Cc1ccc(F)cc1)C(=O)N(C)[C@H](C(=O)N[C@@H](Cc1ccc(O)c(C(C)(C)C)c1)C(=O)NCO)C(C)C` [Example 123, N-Me-Phe(4-F)-N-Me-Val-Tyr(3-tBu)-NHCH2OH]: 0.7 nM and 0.794 nM.

Source of the values: patent publication US7553969B1, “Substituted phenethylamine derivatives” (Chugai Seiyaku Kabushiki Kaisha, priority 1999, dated 2009).
